Data on nine compounds can be found in patent US9656990B2, “Cathepsin cysteine protease inhibitors” (Merck Sharp & Dohme Corp., priority 2014, dated 2017).

SMILES strings stand for the structures.

In assay [1] the target is human cathepsin K (UniProt P43236, Y175D/V274L, species not given). The experiment in a line: Cathepsin K Assay. Conditions: IP from dose response curve; Z-Leu-Arg-AMC substrate, pH 5.5; read-out: hrbCat K (IP (nM)). The assay is classed as biochemical.
In assay [2] the target is T1, human cathepsin F (Homo sapiens, UniProt Q9UBX1).
T1 sequence (Q9UBX1 271-484): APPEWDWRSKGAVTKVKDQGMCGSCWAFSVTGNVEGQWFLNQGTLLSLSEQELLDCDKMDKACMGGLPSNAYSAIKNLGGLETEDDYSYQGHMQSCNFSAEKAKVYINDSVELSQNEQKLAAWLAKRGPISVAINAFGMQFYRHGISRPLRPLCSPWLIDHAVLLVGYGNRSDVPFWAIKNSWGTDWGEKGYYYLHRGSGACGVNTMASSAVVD
The experiment in a line: Cathepsin F Assay. Conditions: IP from dose response curve; Z-Phe-Arg-AMC substrate, pH 5.5; read-out: hCat F (IP (nM)). The format is biochemical. In a few lines:
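Human cathepsin F (10 nM) preincubated 15 min at room temperature with compounds in 50 mM MES pH 5.5, 2.5 mM EDTA, 2.5 mM DTT, 10% DMSO. Z-Phe-Arg-AMC (8 μM) added; AMC release read by fluorescence (Ex 360/Em 460 nm) over 20 min, inhibition fit to dose-response model.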

`CS(=O)(=O)C1CN(c2ccc(-c3cn(-c4ccc(F)cc4)nc3[C@@H]3CCCC[C@H]3C(=O)NC3(C#N)CC3)cc2)C1` [Example 94, (1R,2R)-N-(1-cyanocyclopropyl)-2-(1-(4-fluorophenyl)-4-(4-(3-(methylsulfonyl)azetidin-1-yl)phenyl)-1H-pyrazol-3-yl)cyclohexanecarboxamide]: the values for the IC50 in assay [1] and in assay [2] were 2.57 nM and 2780 nM, respectively.

On to `N#CC1(NC(=O)[C@@H]2CCCC[C@H]2c2nn(-c3ccc(Cl)cc3)cc2-c2ccc(N3CCS(=O)(=O)CC3)cc2)CC1` [Example 95, (1R,2R)-2-(1-(4-chlorophenyl)-4-(4-(1,1-dioxidothiomorpholino)phen-yl)-1H-pyrazol-3-yl)-N-(1-cyanocyclopropyl)cyclohex-anecarboxamide], for which the results for the IC50 in assay [1] and in assay [2] were 0.73 nM and 402 nM, respectively.

As for `CC(C)(O)c1cccc(-n2cc(-c3ccc(N4CCS(=O)(=O)CC4)cc3)c([C@@H]3CCCC[C@H]3C(=O)NC3(C#N)CC3)n2)c1` [Example 96, (1R,2R)-N-(1-cyanocyclopropyl)-2-(4-(4-(1,1-dioxidothiomorpholino)phen-yl)-1-(3-(2-hydroxypropan-2-yl)phenyl)-1H-pyrazol-3-yl)cyclohexanecarboxamide], the IC50 in assay [1] was 1.27 nM; in assay [2] it was 824 nM.

Consider `CC(C)(O)c1ccc(-n2cc(-c3ccc(N4CCS(=O)(=O)CC4)cc3)c([C@@H]3CCCC[C@H]3C(=O)NC3(C#N)CC3)n2)cc1` [Example 97, (1R,2R)-N-(1-cyanocyclopropyl)-2-(4-(4-(1,1-dioxidothiomorpholino)phen-yl)-1-(4-(2-hydroxypropan-2-yl)phenyl)-1H-pyrazol-3-yl)cyclohexanecarboxamide], for which the values for the IC50 in assay [1] and in assay [2] were 0.8 nM and 764 nM, respectively.

As to `N#CC1(NC(=O)[C@@H]2CCCC[C@H]2c2nn(-c3ccccc3F)cc2-c2ccc(N3CCS(=O)(=O)CC3)cc2)CC1` [Example 98, (1R,2R)-N-(1-cyanocyclopropyl)-2-(4-(4-(1,1-dioxidothiomorpholino)phen-yl)-1-(2-fluorophenyl)-1H-pyrazol-3-yl)cyclohexanecarboxamide], the IC50 was 0.91 nM in assay [1] and 946 nM in assay [2].

For `N#CC1(NC(=O)[C@@H]2CCCC[C@H]2c2nn(-c3cccc(Cl)c3)cc2-c2ccc(N3CCS(=O)(=O)CC3)cc2)CC1` [Example 99, (1R,2R)-2-(1-(3-chlorophenyl)-4-(4-(1,1-dioxidothiomorpholino)phen-yl)-1H-pyrazol-3-yl)-N-(1-cyanocyclopropyl)cyclohex-anecarboxamide], the IC50 in assay [1] stood at 0.48 nM; in assay [2], 379 nM.

Regarding `N#Cc1ccc(-n2cc(-c3ccc(N4CCS(=O)(=O)CC4)cc3)c([C@@H]3CCCC[C@H]3C(=O)NC3(C#N)CC3)n2)cc1` [Example 100, (1R,2R)-N-(1-cyanocyclopropyl)-2-(1-(4-cyanophenyl)-4-(4-(1,1-dioxidothiomorpholino)phen-yl)-1H-pyrazol-3-yl)cyclohexanecarboxamide], the IC50 in assay [1] came out at 0.87 nM; in assay [2] it was 212 nM.

`N#Cc1cccc(-n2cc(-c3ccc(N4CCS(=O)(=O)CC4)cc3)c([C@@H]3CCCC[C@H]3C(=O)NC3(C#N)CC3)n2)c1` [Example 101, (1R,2R)-N-(1-cyanocyclopropyl)-2-(1-(3-cyanophenyl)-4-(4-(1,1-dioxidothiomorpholino)phen-yl)-1H-pyrazol-3-yl)cyclohexanecarboxamide]: the IC50 amounted to 0.99 nM in assay [1] and 452 nM in assay [2].

`N#CC1(NC(=O)[C@@H]2CCCC[C@H]2c2nn(-c3ccccc3Cl)cc2-c2ccc(N3CCS(=O)(=O)CC3)cc2)CC1` [Example 102, (1R,2R)-2-(1-(2-chlorophenyl)-4-(4-(1,1-dioxidothiomorpholino)phen-yl)-1H-pyrazol-3-yl)-N-(1-cyanocyclopropyl)cyclohex-anecarboxamide]: the IC50 in assay [1] was 2.9 nM; in assay [2], 643 nM.
